# Laboratory results from US10336732B2, “1-heterocyclyl isochromanyl compounds and analogs for treating CNS disorders” (Sunovion Pharmaceuticals Inc., priority 2015, dated 2019).
# Test system: mice
# Assay: Neuropharmacological assay (SmartCube), behavioral signature of compound-treated mice
# Assay type: in vivo
# Details: i.p. 15 min before behavioral test, most efficacious dose(s) of 3 doses
# Outline: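 Mice received compound i.p. in NMP/PEG/propylene glycol vehicle at 3 doses, 15 min before testing. Video-captured behavior was algorithmically compared with a reference-drug signature database.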
SMILES,AD: ADHD (probability that behavioral signature matches class),AG: analgesic (probability that behavioral signature matches class),AX: anxiolytic (probability that behavioral signature matches class),CE: cognitive enhancer (probability that behavioral signature matches class),DP: anti-depressant (probability that behavioral signature matches class),HA: hallucinogen (probability that behavioral signature matches class),MS: mood stabilizer (probability that behavioral signature matches class),PS: anti-psychotic (probability that behavioral signature matches class),SD: sedative hypnotic (probability that behavioral signature matches class),UN: uncharacterized CNS activity (probability that behavioral signature matches class)
"Clc1ccc2c(c1)[C@H]([C@H]1CCCN1)OCC2 [Compound I-31, (R)-2-((R)-7-chloroisochroman-1-yl)pyrrolidine]",+ (LOQ ≤ + <5%),++ (5% ≤ ++ <25%),+++ (25% ≤ +++ <50%),++ (5% ≤ ++ <25%),++ (5% ≤ ++ <25%),+ (LOQ ≤ + <5%),++ (5% ≤ ++ <25%),+++ (25% ≤ +++ <50%),++ (5% ≤ ++ <25%),+ (LOQ ≤ + <5%)
"c1ccc2c(c1)CCO[C@H]2[C@H]1CCN1 [Compound I-82, (R)-2-((R)-isochroman-1-yl)azetidine]",+ (LOQ ≤ + <5%),++ (5% ≤ ++ <25%),++ (5% ≤ ++ <25%),++ (5% ≤ ++ <25%),+++ (25% ≤ +++ <50%),+ (LOQ ≤ + <5%),++ (5% ≤ ++ <25%),++ (5% ≤ ++ <25%),++ (5% ≤ ++ <25%),++ (5% ≤ ++ <25%)
"Fc1ccc2c(c1)[C@@H]([C@H]1CCCN1)OCC2 [Compound I-8, (R)-2-((S)-7-fluoroisochroman-1-yl)pyrrolidine]",+ (LOQ ≤ + <5%),+ (LOQ ≤ + <5%),++ (5% ≤ ++ <25%),++ (5% ≤ ++ <25%),+++ (25% ≤ +++ <50%),+ (LOQ ≤ + <5%),+ (LOQ ≤ + <5%),+++ (25% ≤ +++ <50%),++ (5% ≤ ++ <25%),++ (5% ≤ ++ <25%)
"Fc1ccc2c(c1)CO[C@H]2[C@@H]1CCCN1 [Compound I-119, (S)-2-((R)-5-fluoro-1,3-dihydroisobenzofuran-1-yl)pyrrolidine]",+ (LOQ ≤ + <5%),+++ (25% ≤ +++ <50%),++ (5% ≤ ++ <25%),++ (5% ≤ ++ <25%),++ (5% ≤ ++ <25%),+ (LOQ ≤ + <5%),+ (LOQ ≤ + <5%),+++ (25% ≤ +++ <50%),+ (LOQ ≤ + <5%),+ (LOQ ≤ + <5%)
"Fc1ccc2c(c1)[C@@H]([C@@H]1CCCN1)OCCC2 [Compound I-106, (S)-2-((S)-8-fluoro-1,3,4,5-tetrahydrobenzo[c]oxepin-1-yl)pyrrolidine]",+ (LOQ ≤ + <5%),++ (5% ≤ ++ <25%),++ (5% ≤ ++ <25%),+++ (25% ≤ +++ <50%),+ (LOQ ≤ + <5%),+ (LOQ ≤ + <5%),+ (LOQ ≤ + <5%),++ (5% ≤ ++ <25%),+ (LOQ ≤ + <5%),+ (LOQ ≤ + <5%)
"Fc1ccc2c(c1)CCO[C@H]2[C@@H]1COCCN1 [Compound I-78, (S)-3-((R)-6-fluoroisochroman-1-yl)morpholine]",+ (LOQ ≤ + <5%),++ (5% ≤ ++ <25%),+++ (25% ≤ +++ <50%),++ (5% ≤ ++ <25%),++ (5% ≤ ++ <25%),+ (LOQ ≤ + <5%),+ (LOQ ≤ + <5%),++ (5% ≤ ++ <25%),+ (LOQ ≤ + <5%),+ (LOQ ≤ + <5%)
"c1ccc2c(c1)CCCO[C@H]2[C@H]1CCCN1 [Compound I-100, (R)-2-((R)-1,3,4,5-tetrahydrobenzo[c]oxepin-1-yl)pyrrolidine]",+ (LOQ ≤ + <5%),++ (5% ≤ ++ <25%),++ (5% ≤ ++ <25%),+++ (25% ≤ +++ <50%),++ (5% ≤ ++ <25%),+ (LOQ ≤ + <5%),++ (5% ≤ ++ <25%),+++ (25% ≤ +++ <50%),++ (5% ≤ ++ <25%),+ (LOQ ≤ + <5%)
"Fc1ccc2c(c1)[C@H](F)CO[C@H]2[C@@H]1CCCN1 [Compound I-137, (S)-2-((1R,4S)-4,6-difluoroisochroman-1-yl)pyrrolidine]",+ (LOQ ≤ + <5%),++ (5% ≤ ++ <25%),++ (5% ≤ ++ <25%),++ (5% ≤ ++ <25%),++ (5% ≤ ++ <25%),+ (LOQ ≤ + <5%),++ (5% ≤ ++ <25%),++++ (50% ≤ ++++),++ (5% ≤ ++ <25%),++ (5% ≤ ++ <25%)
"FC1(F)CO[C@@H]([C@@H]2CCCN2)c2ccccc21 [Compound I-140, (S)-2-((R)-4,4-difluoroisochroman-1-yl)pyrrolidine]",+ (LOQ ≤ + <5%),++ (5% ≤ ++ <25%),++ (5% ≤ ++ <25%),+++ (25% ≤ +++ <50%),++ (5% ≤ ++ <25%),+ (LOQ ≤ + <5%),++ (5% ≤ ++ <25%),++ (5% ≤ ++ <25%),+++ (25% ≤ +++ <50%),++ (5% ≤ ++ <25%)
"CC1(C)Cc2ccccc2[C@H]([C@@H]2CCCN2)O1 [Compound I-66, (S)-2-((R)-3,3-dimethylisochroman-1-yl)pyrrolidine]",+ (LOQ ≤ + <5%),++ (5% ≤ ++ <25%),++ (5% ≤ ++ <25%),++ (5% ≤ ++ <25%),++ (5% ≤ ++ <25%),+ (LOQ ≤ + <5%),+ (LOQ ≤ + <5%),+++ (25% ≤ +++ <50%),+ (LOQ ≤ + <5%),++ (5% ≤ ++ <25%)
"Fc1cccc2c1CCO[C@H]2[C@@H]1CCN1 [Compound I-93, (S)-2-((R)-5-fluoroisochroman-1-yl)azetidine]",++ (5% ≤ ++ <25%),+++ (25% ≤ +++ <50%),++ (5% ≤ ++ <25%),++ (5% ≤ ++ <25%),+++ (25% ≤ +++ <50%),+ (LOQ ≤ + <5%),+ (LOQ ≤ + <5%),++ (5% ≤ ++ <25%),++ (5% ≤ ++ <25%),++ (5% ≤ ++ <25%)

# Same assay, conditions: i.p. 15 min before behavioral test, most efficacious dose(s) of 3 doses
row,SMILES,XG: anxiogenic (probability that behavioral signature matches class)
1,"Clc1ccc2c(c1)[C@H]([C@H]1CCCN1)OCC2 [Compound I-31, (R)-2-((R)-7-chloroisochroman-1-yl)pyrrolidine]",+ (LOQ ≤ + <5%)
2,"c1ccc2c(c1)CCO[C@H]2[C@H]1CCN1 [Compound I-82, (R)-2-((R)-isochroman-1-yl)azetidine]",+ (LOQ ≤ + <5%)
3,"Fc1ccc2c(c1)[C@@H]([C@H]1CCCN1)OCC2 [Compound I-8, (R)-2-((S)-7-fluoroisochroman-1-yl)pyrrolidine]",+ (LOQ ≤ + <5%)
4,"Fc1ccc2c(c1)CO[C@H]2[C@@H]1CCCN1 [Compound I-119, (S)-2-((R)-5-fluoro-1,3-dihydroisobenzofuran-1-yl)pyrrolidine]",+ (LOQ ≤ + <5%)
5,"Fc1ccc2c(c1)[C@@H]([C@@H]1CCCN1)OCCC2 [Compound I-106, (S)-2-((S)-8-fluoro-1,3,4,5-tetrahydrobenzo[c]oxepin-1-yl)pyrrolidine]",+ (LOQ ≤ + <5%)
6,"Fc1ccc2c(c1)CCO[C@H]2[C@@H]1COCCN1 [Compound I-78, (S)-3-((R)-6-fluoroisochroman-1-yl)morpholine]",+ (LOQ ≤ + <5%)
7,"c1ccc2c(c1)CCCO[C@H]2[C@H]1CCCN1 [Compound I-100, (R)-2-((R)-1,3,4,5-tetrahydrobenzo[c]oxepin-1-yl)pyrrolidine]",+ (LOQ ≤ + <5%)
8,"Fc1ccc2c(c1)[C@H](F)CO[C@H]2[C@@H]1CCCN1 [Compound I-137, (S)-2-((1R,4S)-4,6-difluoroisochroman-1-yl)pyrrolidine]",+ (LOQ ≤ + <5%)
9,"FC1(F)CO[C@@H]([C@@H]2CCCN2)c2ccccc21 [Compound I-140, (S)-2-((R)-4,4-difluoroisochroman-1-yl)pyrrolidine]",+ (LOQ ≤ + <5%)
10,"CC1(C)Cc2ccccc2[C@H]([C@@H]2CCCN2)O1 [Compound I-66, (S)-2-((R)-3,3-dimethylisochroman-1-yl)pyrrolidine]",+ (LOQ ≤ + <5%)
11,"Fc1cccc2c1CCO[C@H]2[C@@H]1CCN1 [Compound I-93, (S)-2-((R)-5-fluoroisochroman-1-yl)azetidine]",+ (LOQ ≤ + <5%)
